Calls of active or inactive are those of the source. The rule behind the calls is not given here.
Assays:
[1] = test system: Glomerular mesangial cell; assay: Increase in total Nrf2 expression in human glomerular mesangial cells at 10 uM under high glucose condition by Western blot analysis; type: functional, tissue-based; conditions: dose microM 0.1-10
[2] = molecular target: T1, Nuclear factor erythroid 2-related factor 2 (Homo sapiens) (UniProt Q16236); assay: Activation of Nrf2 in human glomerular mesangial cells assessed as increase in Nrf2 level at 0.1 to 10 uM under high glucose condition; type: tissue-based; conditions: Glomerular mesangial cell, filed as activator, dose microM 0.1-10
T1 sequence (whole entry): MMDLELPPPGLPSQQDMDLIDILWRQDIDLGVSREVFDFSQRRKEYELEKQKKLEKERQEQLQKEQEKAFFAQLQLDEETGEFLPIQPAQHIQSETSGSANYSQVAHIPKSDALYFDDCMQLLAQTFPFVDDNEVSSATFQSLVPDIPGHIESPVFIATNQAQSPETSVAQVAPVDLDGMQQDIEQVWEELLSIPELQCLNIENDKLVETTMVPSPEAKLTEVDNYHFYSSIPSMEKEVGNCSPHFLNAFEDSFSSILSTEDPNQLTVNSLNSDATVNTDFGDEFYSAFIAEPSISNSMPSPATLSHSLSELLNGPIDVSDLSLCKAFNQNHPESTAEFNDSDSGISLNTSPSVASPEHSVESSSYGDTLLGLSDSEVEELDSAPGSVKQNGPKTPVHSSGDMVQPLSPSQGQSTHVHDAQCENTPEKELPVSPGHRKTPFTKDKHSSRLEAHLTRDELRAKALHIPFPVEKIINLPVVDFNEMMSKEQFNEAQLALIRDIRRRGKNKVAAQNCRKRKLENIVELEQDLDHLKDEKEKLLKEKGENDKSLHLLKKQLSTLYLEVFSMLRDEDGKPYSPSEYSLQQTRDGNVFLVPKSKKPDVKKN

[3] = Cytotoxicity against human glomerular mesangial cells assessed as effect on cell viability at 400 uM after 1 hr by CCK8 assay; type: cell-based
[4] = test system: Glomerular mesangial cell; assay: Cytoprotective activity against high glucose-induced decreased cell viability in human glomerular mesangial cells at 0.1 uM after 1 hr by CCK8 assay; type: functional, tissue-based
[5] = test system: Glomerular mesangial cell; assay: Cytoprotective activity against high glucose-induced self-limited proliferation in human glomerular mesangial cells at 0.1 to 10 uM measured after 3 hrs under high glucose condition by BrdU incorporation assay; type: functional, tissue-based; conditions: dose microM 0.1-10, time 3.0 hrs
[6] = molecular target: T1, Nuclear factor erythroid 2-related factor 2 (Homo sapiens); assay: Activation of Nrf2 in human glomerular mesangial cells assessed as translocation of Nrf2 from cytoplasm to nucleus at 0.1 to 10 uM under high glucose condition by DAPI staining based fluorescence microscopy analysis; type: tissue-based; conditions: Glomerular mesangial cell, filed as activator, dose microM 0.1-10
[7] = molecular target: T1, Nuclear factor erythroid 2-related factor 2 (Homo sapiens); assay: Activation of Nrf2 in human glomerular mesangial cells assessed as increase in nuclear Nrf2 expression at 0.1 to 10 uM under high glucose condition by Western blot analysis; conditions: Glomerular mesangial cell, filed as activator, dose microM 0.1-10
[8] = Suppression of high glucose-induced extracellular matrix accumulation in human glomerular mesangial cells assessed as effect on TGFbeta1 secretion at 0.1 uM by ELISA (reference value: 312.7 +/- 18.2 %); type: functional; conditions: Glomerular mesangial cell
[9] = molecular target: T1, Nuclear factor erythroid 2-related factor 2 (Homo sapiens); assay: Activation of Nrf2 in human glomerular mesangial cells transfected with ARE luciferase reporter plasmid assessed as increase in ARE luciferase activity at 0.1 to 10 uM under high glucose condition by dual luciferase reporter gene assay; conditions: Glomerular mesangial cell, filed as activator, dose microM 0.1-10
[10] = Antioxidant activity against high glucose-induced oxidative stress in human glomerular mesangial cells assessed as effect on intracellular ROS level at 0.1 uM after 20 mins by DCFH-DA staining based fluorescence assay (reference value: 361 +/- 16.7 %); type: functional, Glomerular mesangial cell
[11] = Antioxidant activity against high glucose-induced oxidative stress in human glomerular mesangial cells assessed as effect on intracellular ROS level at 1 uM after 20 mins by DCFH-DA staining based fluorescence assay (reference value: 361 +/- 16.7 %); type: functional, Glomerular mesangial cell
[12] = Antioxidant activity against high glucose-induced oxidative stress in human glomerular mesangial cells assessed as effect on intracellular ROS level at 10 uM after 20 mins by DCFH-DA staining based fluorescence assay (reference value: 361 +/- 16.7 %); type: functional, Glomerular mesangial cell
[13] = Antioxidant activity against high glucose-induced oxidative stress in human glomerular mesangial cells assessed as effect on intracellular MDA level at 0.1 uM after 10 mins by thiobarbituric acid based absorbance analysis (reference value: 216 +/- 17.3 %); type: functional, Glomerular mesangial cell
[14] = Antioxidant activity against high glucose-induced oxidative stress in human glomerular mesangial cells assessed as effect on intracellular MDA level at 1 uM after 10 mins by thiobarbituric acid based absorbance analysis (reference value: 216 +/- 17.3 %); type: functional, Glomerular mesangial cell
[15] = Antioxidant activity against high glucose-induced oxidative stress in human glomerular mesangial cells assessed as effect on intracellular MDA level at 10 uM after 10 mins by thiobarbituric acid based absorbance analysis (reference value: 216 +/- 17.3 %); type: functional, Glomerular mesangial cell
[16] = Antioxidant activity against high glucose-induced oxidative stress in human glomerular mesangial cells assessed as effect on SOD activity at 0.1 uM by colorimetric assay relative to control; type: functional, Glomerular mesangial cell
[17] = Antioxidant activity against high glucose-induced oxidative stress in human glomerular mesangial cells assessed as effect on SOD activity at 1 uM by colorimetric assay relative to control; type: functional, Glomerular mesangial cell
[18] = Antioxidant activity against high glucose-induced oxidative stress in human glomerular mesangial cells assessed as effect on SOD activity at 10 uM by colorimetric assay relative to control; type: functional, Glomerular mesangial cell
[19] = Antioxidant activity against high glucose-induced oxidative stress in human glomerular mesangial cells assessed as effect on CAT activity at 0.1 uM by colorimetric assay relative to control; type: functional, Glomerular mesangial cell
[20] = Antioxidant activity against high glucose-induced oxidative stress in human glomerular mesangial cells assessed as effect on CAT activity at 1 uM by colorimetric assay relative to control; type: functional, Glomerular mesangial cell
[21] = Antioxidant activity against high glucose-induced oxidative stress in human glomerular mesangial cells assessed as effect on CAT activity at 10 uM by colorimetric assay relative to control; type: functional, Glomerular mesangial cell
[22] = Suppression of high glucose-induced extracellular matrix accumulation in human glomerular mesangial cells assessed as collagen 4 level at 0.1 uM by ELISA (reference value: 221.7 +/- 14.1 %); type: functional; conditions: Glomerular mesangial cell
[23] = Suppression of high glucose-induced extracellular matrix accumulation in human glomerular mesangial cells assessed as collagen 4 level at 1 uM by ELISA (reference value: 221.7 +/- 14.1 %); type: functional; conditions: Glomerular mesangial cell
[24] = Suppression of high glucose-induced extracellular matrix accumulation in human glomerular mesangial cells assessed as collagen 4 level at 10 uM by ELISA (reference value: 221.7 +/- 14.1 %); type: functional; conditions: Glomerular mesangial cell
[25] = Suppression of high glucose-induced extracellular matrix accumulation in human glomerular mesangial cells assessed as fibronectin level at 0.1 uM by ELISA (reference value: 319.6 +/- 12.4 %); type: functional; conditions: Glomerular mesangial cell
[26] = Suppression of high glucose-induced extracellular matrix accumulation in human glomerular mesangial cells assessed as fibronectin level at 1 uM by ELISA (reference value: 319.6 +/- 12.4 %); type: functional; conditions: Glomerular mesangial cell
[27] = Suppression of high glucose-induced extracellular matrix accumulation in human glomerular mesangial cells assessed as fibronectin level at 10 uM by ELISA (reference value: 319.6 +/- 12.4 %); type: functional; conditions: Glomerular mesangial cell
[28] = Suppression of high glucose-induced extracellular matrix accumulation in human glomerular mesangial cells assessed as laminin level at 0.1 uM by ELISA (reference value: 183.8 +/- 9.3 %); type: functional; conditions: Glomerular mesangial cell
[29] = Suppression of high glucose-induced extracellular matrix accumulation in human glomerular mesangial cells assessed as laminin level at 1 uM by ELISA (reference value: 183.8 +/- 9.3 %); type: functional; conditions: Glomerular mesangial cell
[30] = Suppression of high glucose-induced extracellular matrix accumulation in human glomerular mesangial cells assessed as laminin level at 10 uM by ELISA (reference value: 183.8 +/- 9.3 %); type: functional; conditions: Glomerular mesangial cell
[31] = test system: Glomerular mesangial cell; assay: Suppression of high glucose-induced extracellular matrix accumulation in human glomerular mesangial cells assessed as reduction in collagen 4 level by ELISA; type: functional, tissue-based; conditions: dose microM 0.1-10
[32] = test system: Glomerular mesangial cell; assay: Suppression of high glucose-induced extracellular matrix accumulation in human glomerular mesangial cells assessed as reduction in fibronectin level by ELISA; type: functional, tissue-based; conditions: dose microM 0.1-10
[33] = test system: Glomerular mesangial cell; assay: Suppression of high glucose-induced extracellular matrix accumulation in human glomerular mesangial cells assessed as reduction in laminin level by ELISA; type: functional, tissue-based; conditions: dose microM 0.1-10
[34] = Suppression of high glucose-induced extracellular matrix accumulation in human glomerular mesangial cells assessed as effect on TGFbeta1 secretion at 1 uM by ELISA (reference value: 312.7 +/- 18.2 %); type: functional; conditions: Glomerular mesangial cell
[35] = Suppression of high glucose-induced extracellular matrix accumulation in human glomerular mesangial cells assessed as effect on TGFbeta1 secretion at 10 uM by ELISA (reference value: 312.7 +/- 18.2 %); type: functional; conditions: Glomerular mesangial cell
[36] = Suppression of high glucose-induced extracellular matrix accumulation in human glomerular mesangial cells assessed as effect on CTGF secretion at 10 uM by ELISA (reference value: 267.7 +/- 21.3 %); type: functional; conditions: Glomerular mesangial cell
[37] = test system: Glomerular mesangial cell; assay: Suppression of high glucose-induced extracellular matrix accumulation in human glomerular mesangial cells assessed as decrease in CTGF secretion by ELISA; type: functional, tissue-based; conditions: dose microM 0.1-10
[38] = test system: Glomerular mesangial cell; assay: Suppression of high glucose-induced extracellular matrix accumulation in human glomerular mesangial cells assessed as decrease in TGFbeta1 secretion by ELISA; type: functional, tissue-based; conditions: dose microM 0.1-10
[39] = test system: Glomerular mesangial cell; assay: Effect on high glucose-induced oxidative stress in human glomerular mesangial cells transfected with Nrf2-siRNA assessed as decrease in intracellular ROS level at 10 uM; type: functional, tissue-based
[40] = test system: Glomerular mesangial cell; assay: Effect on high glucose-induced oxidative stress in human glomerular mesangial cells transfected with Nrf2-siRNA assessed as decrease in intracellular MDA level at 10 uM; type: functional
[41] = test system: Glomerular mesangial cell; assay: Effect on high glucose-induced extracellular matrix accumulation in human glomerular mesangial cells transfected with Nrf2-siRNA assessed as decrease in collagen 4 level at 10 uM; type: functional, tissue-based
[42] = test system: Glomerular mesangial cell; assay: Effect on high glucose-induced extracellular matrix accumulation in human glomerular mesangial cells transfected with Nrf2-siRNA assessed as decrease in fibronectin level at 10 uM; type: functional, tissue-based
[43] = test system: Glomerular mesangial cell; assay: Effect on high glucose-induced extracellular matrix accumulation in human glomerular mesangial cells transfected with Nrf2-siRNA assessed as decrease in laminin level at 10 uM; type: functional, tissue-based
[44] = molecular target: Kelch-like ECH-associated protein 1 (Homo sapiens) (UniProt Q14145); assay: Binding affinity to Keap1 in human glomerular mesangial cells assessed as disruption of Keap1-Nrf2 complex formation causing decrease in Keap1 level at 10 uM measured after overnight by co-immunoprecipitation analysis; type: tissue-based; conditions: Glomerular mesangial cell, filed as activator, time 12.0 hrs
Chain of Kelch-like ECH-associated protein 1 (Homo sapiens) (Q14145 whole entry): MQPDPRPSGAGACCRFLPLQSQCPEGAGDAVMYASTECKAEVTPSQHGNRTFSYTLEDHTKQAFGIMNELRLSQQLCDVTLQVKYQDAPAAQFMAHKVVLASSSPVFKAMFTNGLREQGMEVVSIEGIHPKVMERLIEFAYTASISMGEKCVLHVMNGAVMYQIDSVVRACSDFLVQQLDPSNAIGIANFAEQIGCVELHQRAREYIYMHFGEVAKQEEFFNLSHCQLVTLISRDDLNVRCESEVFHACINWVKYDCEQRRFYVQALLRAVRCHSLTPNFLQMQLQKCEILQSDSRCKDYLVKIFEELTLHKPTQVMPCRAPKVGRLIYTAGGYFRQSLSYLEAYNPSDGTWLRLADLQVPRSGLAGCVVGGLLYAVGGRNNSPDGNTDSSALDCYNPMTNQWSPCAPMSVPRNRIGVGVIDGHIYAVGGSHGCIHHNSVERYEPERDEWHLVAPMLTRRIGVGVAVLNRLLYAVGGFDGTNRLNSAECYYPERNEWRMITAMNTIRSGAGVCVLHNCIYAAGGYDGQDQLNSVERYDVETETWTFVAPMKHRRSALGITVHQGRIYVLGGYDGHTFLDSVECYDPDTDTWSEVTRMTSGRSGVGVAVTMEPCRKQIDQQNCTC

In the case of `O=C(O)/C=C/c1cc(OC(=O)/C=C/c2ccc(O[C@@H]3O[C@H](CO)[C@@H](O)[C@H](O)[C@H]3O)cc2)cc(O[C@@H]2O[C@H](CO)[C@@H](O)[C@H](O)[C@H]2O)c1`, the Activity [1] is reported as “Active”, the Activity [2] is reported as “Active” and the Activity [3] is reported as “Non-Toxic”. The Activity [4] was “Active”, the Activity [5] was “Active” and the Activity [6] was “Active”. The Activity [7] was “Active”, the level, % of control at 0.1 µM [8] was 262% and the Activity [9] was “Active”. The Activity [10] was 323%, the Activity [11] was 287.2% and the Activity [12] was 190.8%. For the same compound, the Activity [13] was 183.9%, the Activity [14] was 163.7% and the Activity [15] was 135.9%. For the same compound, the Activity [16] was 155.7%, the Activity [17] was 229.2% and the Activity [18] was 306.3%. The Activity [19] was 144.6%, the Activity [20] was 188.5% and the Activity [21] was 233.4%. The level, % of control at 0.1 µM [22] was 193%, the level, % of control at 1 µM [23] was 163% and the level, % of control at 10 µM [24] was 129%. For the same compound, the level, % of control at 0.1 µM [25] was 282%, the level, % of control at 1 µM [26] was 246% and the level, % of control at 10 µM [27] was 179%. It also gave a level, % of control at 0.1 µM [28] of 163%, a level, % of control at 1 µM [29] of 148% and a level, % of control at 10 µM [30] of 124%. For the same compound, the inhibition [31] was “Dose-dependent effect”, the inhibition [32] was “Dose-dependent effect” and the inhibition [33] was “Dose-dependent effect”. For the same compound, the level, % of control at 1 µM [34] was 213%, the level, % of control at 10 µM [35] was 140% and the level, % of control at 10 µM [36] was 119%. The inhibition [37] was “Dose-dependent effect”, the inhibition [38] was “Dose-dependent effect” and the Activity [39] was “inactive”. For the same compound, the Activity [40] was “inactive”, the Activity [41] was “inactive” and the Activity [42] was “inactive”. The Activity [43] was “inactive” and the Activity [44] was “Active”.
